Active and inactive are the calls of the source.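 Rule for the calls: active = over 30% block of the TRPC6 ion channel at some tested dose, plus a fitted dose-response curve; inactive = no block at any dose, or no fitted curve.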
Target: Short transient receptor potential channel 6 (Mus musculus) (UniProt Q61143)
Assay: mouse TRPC6 channel blockers, concentration series – HEK293 cells, membrane potential dye, IC50, selectivity assay for selective TRPC4 inhibitor project, dose response (AID 492987)
Details: for fluorescence ratio, lower = inhibition: at 20 µM (top of the series)

Sequence of Short transient receptor potential channel 6 (Mus musculus) (Q61143 whole entry, looked up): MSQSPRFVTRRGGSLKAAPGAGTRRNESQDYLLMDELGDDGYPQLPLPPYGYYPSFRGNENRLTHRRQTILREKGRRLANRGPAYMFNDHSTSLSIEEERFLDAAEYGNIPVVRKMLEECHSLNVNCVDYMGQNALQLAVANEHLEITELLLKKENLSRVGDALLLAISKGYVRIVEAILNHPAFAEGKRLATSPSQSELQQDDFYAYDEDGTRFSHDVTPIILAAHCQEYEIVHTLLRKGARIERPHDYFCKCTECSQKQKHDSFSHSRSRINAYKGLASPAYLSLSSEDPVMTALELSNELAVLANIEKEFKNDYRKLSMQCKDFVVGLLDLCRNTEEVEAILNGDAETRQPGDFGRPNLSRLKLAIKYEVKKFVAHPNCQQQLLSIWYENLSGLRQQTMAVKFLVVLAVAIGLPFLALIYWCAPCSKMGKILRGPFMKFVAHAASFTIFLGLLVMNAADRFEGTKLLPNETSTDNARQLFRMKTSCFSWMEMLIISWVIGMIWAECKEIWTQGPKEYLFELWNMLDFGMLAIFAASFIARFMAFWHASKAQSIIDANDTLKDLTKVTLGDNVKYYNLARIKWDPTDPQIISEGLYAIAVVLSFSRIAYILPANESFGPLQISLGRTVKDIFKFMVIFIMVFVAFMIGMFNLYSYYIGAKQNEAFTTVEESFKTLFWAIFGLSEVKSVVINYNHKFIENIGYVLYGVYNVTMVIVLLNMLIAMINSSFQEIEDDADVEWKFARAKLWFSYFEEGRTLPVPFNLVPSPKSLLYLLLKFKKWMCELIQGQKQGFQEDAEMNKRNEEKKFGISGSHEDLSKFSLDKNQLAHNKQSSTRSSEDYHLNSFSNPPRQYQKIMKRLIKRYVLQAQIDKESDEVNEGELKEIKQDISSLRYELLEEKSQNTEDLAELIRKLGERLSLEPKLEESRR

| Structure (SMILES) | fluorescence ratio, lower = inhibition | IC50 (membrane potential dye fluorescence) [µM] |
| --- | --- | --- |
| CCN(CC)c1cc(C)c2ccccc2n1 | inactive |  |
| c1ccc(-c2cc(N3CCCC3)nc3ccccc23)cc1 | inactive |  |
| Cc1cc(N2CCN(c3ccccc3C#N)CC2)nc2ccccc12 | inactive |  |
| Cc1cc(N(C)CCN(C)C)nc2ccccc12 | inactive |  |
| c1ccc(-c2cc(N3CCCCC3)nc3ccccc23)cc1 | inactive |  |
| Cc1cc(N2CCN(C)CC2)nc2ccccc12 | inactive |  |
| COc1ccc(N2CCN(c3cc(C)c4ccccc4n3)CC2)cc1 | inactive |  |
| Cc1cc(N2CCOc3ccccc32)nc2ccccc12 | inactive |  |
| Cc1cc(N2CCCC(O)C2)nc2ccccc12 (stereo not given) | inactive |  |
| Cc1cc(N2CCN(c3ncccn3)CC2)nc2ccccc12 | inactive |  |
| Cc1cc(N2CCN(CC3CCCO3)CC2)nc2ccccc12 (stereo not given) | inactive |  |
| COc1ccccc1N1CCN(c2cc(C)c3ccccc3n2)CC1 | inactive |  |
| Cc1cc(N2CCOCC2)nc2ccccc12 | inactive |  |
| COCCN(C)c1cc(C)c2ccccc2n1 | inactive |  |
| Cc1cc(N2CCC(C)CC2)nc2ccccc12 | inactive |  |
| Cc1cc(N2CC(C)CC(C)C2)nc2ccccc12 (stereo not given) | inactive |  |

Second part, the molecule after the results:

| fluorescence ratio, lower = inhibition | IC50 (membrane potential dye fluorescence) [µM] | Structure (SMILES) |
| --- | --- | --- |
| inactive |  | Cc1cc(N2CCCCCC2)nc2ccc(F)cc12 |
| inactive |  | Cc1ccnc(N2CCCCCC2)c1 |
| inactive |  | Cc1ccnc(N2CCCC2)n1 |
| inactive |  | Cc1ccnc(N2CCCCCC2)n1 |
| inactive |  | Cc1ccnc(N2CCCCC2)c1 |
| inactive |  | Cc1cc(N2CCCCCC2)nc2c(C)cccc12 |
| inactive |  | FC(F)(F)c1cc(N2CCCCCC2)nc2ccccc12 |
| inactive |  | FC(F)(F)c1cc(N2CCCCC2)nc2ccccc12 |
| inactive |  | CCc1ccc2nc(N3CCCCCC3)cc(C)c2c1 |
| inactive |  | Cc1ccnc(N2CCCC2)c1 |
|  | 17.9 | Cc1cc(N2CCCCC2)nc2ccccc12 |
| inactive |  | Cc1ccnc(N2CCCCC2)n1 |
| inactive |  | c1ccc(-c2cc(N3CCCCCC3)nc3ccccc23)cc1 |
| inactive |  | Cc1cc(N2CCCCC2)nc2c(C)cccc12 |
